Entries after “also recorded” stand apart in the source; their conditions may differ.
Columns and labels:
tubulin [1] = assay: Platelet spreading assay, tubulin staining; format: cell-based; conditions: FIG. 10
Source text: (§1) To confirm these findings, tubulin and actin also were stained on platelets that were viable and functionally active using a spreading assay.

actin = assay: Platelet spreading assay, actin staining; format: cell-based; conditions: FIG. 10
Protocol: (§2) The following was performed to determine if CNP could affect cytoskeletal proteins such as tubulin and/or actin. To delineate this function of CNP, human platelets were either treated with the Lbab polypeptide or CNP and were placed on slides using cytospin Immunocytochemistry was performed with anti-tubulin or anti-actin antibodies.
as §1

tubulin [2] = assay: Tubulin polymerization assay; format: biochemical; conditions: nucleation, growth and steady state phases; FIG. 11
Protocol: To demarcate whether the effects of CNP on microtubules was direct or indirect, a microtubule polymerization assay from cytoskeleton was utilized as per manufacturer's protocol. The assay studied all three phases of microtubule formation, namely nucleation, growth, and steady state equilibrium.
A 96-well plate was warmed in the incubator to 37° C. for 10 minutes. During this time, 10× stock solutions of compounds to be tested were prepared. 5 μL of control buffer, 5 μL of the 10× paclitaxel stock, and 5 μL of the 10× test compound were added to their respective wells. Next, the 96 well plate was placed back into warm plate reader for 1 minute. Finally, 50 μL of the tubulin reaction mix was added to each of the wells as quickly as possible, and the plate reader was started.

[3] = tested on: GC-B present on megakaryocytes; assay: cGMP production in megakaryocytes (BIOTRAK cGMP enzyme immunoassay); format: cell-based, mouse; conditions: 30 minutes at 37° C.; FIG. 3
Source text: Primary hematopoietic progenitor cells were isolated from mouse fetal livers of E13.5 embryos (C57B1/6) or from femurs and tibias of C57B1/6 mice using the EasySep negative selection mouse hematopoietic progenitor enrichment kit (Stem Cell Technologies, Vancouver, BC). The progenitor cells were then expanded for two days in serum free expansion media containing 50% RPMI using standard techniques to generate megakaryocytes (Huang et al., J. Clin. Invest., 117(12):3890-9 (2007) and Muntean and Crispino, Blood, 106(4):1223-31 (2005)). The purity of the megakaryocytes was assessed using acetylcholinesterase (AchE) staining using standard protocols and FACS with CD41 (Emfret Analytics).
The following was performed to determine if GC-B present on megakaryocytes is functional and responsive to CNP. Megakaryocytes were treated with either CNP or a single residue mutant CNP designated Lbab for 30 minutes at 37° C. with 5% CO2 in IMDM media supplemented with 1% Nutridoma, penicillin, streptomycin, L-glutamine, and recombinant TPO. The Lbab polypeptide (FIG. 2) is described elsewhere (Yoder et al., Peptides, 29(9):1575-81 (2008)).
After the incubation, the cells were lysed, and the amount of cGMP was measured using a BIOTRAK cGMP enzyme immunoassay system Kit (GE Healthcare Bio-Sciences Corp.).

platelets [4] = assay: Platelet adhesion to collagen; format: cell-based, human or C57B1/6 mice; conditions: for number of platelets adhered to collagen: n=5; for platelet adhesion to collagen (in words): FIG. 7; for pseudopodia formation of platelets adhered to collagen: light microscopy
Protocol: (§3) The role of CNP on platelet aggregation and platelet adhesion to fibrinogen, fibronectin, and collagen were assessed. Human platelets or platelets from C57B1/6 mice were isolated and treated with either CNP or the Lbab polypeptide for 30 minutes at 37° C. with 5% CO2. Following treatment, the platelets were gently added to cover slips pre-blocked with 1% BSA and pre-coated with fibrinogen, fibronectin, or collagen (50 μg/mL, CHRONOLOG Corp., Havertown, Pa.). Ca^+2 and Mg^+2 were added to 1 mM and 2 mM, respectively, before incubation at 37° C. for 30 minutes. The platelets were then fixed and permeabilized before staining with TRITC Phalloidin (0.5 μg/mL; Sigma) for an hour. The platelets were then gently washed a couple of times with PBS and mounted in Vectashield mounting medium (Vector laboratories, Burlingame, Calif.) and sealed with nail polish as described elsewhere (Moraes et al., J. Thromb. Haemost., 8(11):2530-41 (2010); and Bougie et al., Blood, 116(16):3033-8 (2010)). Images were acquired from five consecutive fields using a Zeiss Axioscop microscope (Carl Zeiss, Oberkochen, Germany) with a Zeiss 100× oil-immersion lens. The images were analyzed using ImageJ software.
Platelets were isolated and treated with either CNP or the mutant Lbab polypeptide for 30 minutes at 37° C. with 5% CO2. Following treatment, the platelets were gently added to cover slips pre-blocked with 1% BSA and pre-coated with collagen ([…], CHRONOLOG-corporation). Ca^+2 and Mg^+2 were added to 1 mM and 2 mM, respectively, before incubation at 37° C. for 30 minutes. The platelets were then fixed and permeabilized before staining with TRITC Phalloidin (0.5 μg/mL; Sigma) for an hour. The platelets were then gently washed a couple of times with PBS and then mounted in Vectashield mounting medium (Vector laboratories, Burlingame, Calif.) and sealed with nail polish. Images were acquired from five consecutive fields using Zeiss Axioscop microscope (Carl Zeiss, Oberkochen, Germany) with a Zeiss 100× oil-immersion lens and analyzed using ImageJ software.
Cells were placed in Trump's fixative, 4% formaldehyde: 1% glutaraldehyde for 1 hour or longer at 4° C. After two rinses in 0.1 M sodium phosphate buffer (pH 7.2), samples were dehydrated in a graded ethanol series to 100% ethanol at which time they were critical point dried with liquid carbon dioxide. They were then mounted on specimen stubs, sputter-coated with gold-palladium, and examined with a Hitachi S4700 scanning electron microscope.

tubulin [5] = assay: Immunocytochemistry of tubulin in platelets (cytospin); format: cell-based; conditions: human platelets; FIG. 9
Protocol: as §2
PRP was spun down in a cytospin at 1000 rpm for 2 minutes to obtain slides of mouse/human platelets. These slides were fixed and blocked with 10% normal goat serum and incubated with mouse anti-tubulin antibody at 1:700 (Sigma) in PBS. Goat anti-mouse Alexa Fluor 594 at 1:500 (Molecular Probes) was used to visualize the tubulin. Matched negative controls also were used.

megakaryocytes = assay: Megakaryocyte colony formation assay (MegaCult-C); format: cell-based, mouse; conditions: bone marrow cells, 6 to 8 days; FIG. 4
Protocol: To determine the effect of CNP on the colony forming ability of megakaryocytes, colony formation assays were conducted using MegaCult®-C (StemCell Tech) as per the manufacturer's protocol. Mice were euthanized, and bone marrow was collected from femurs and tibias by flushing the bones multiple times with IMDM. Once a single cell suspension was achieved, the cells were added to MegaCult®-C medium containing cytokines and collagen. The cell suspension was then dispensed into the chamber slide at the concentration of 20,000 cells/well and incubated at 37° C. with 5% CO2 and >95% humidity for 6 to 8 days. The cells were then dehydrated and fixed with acetone followed by acetylcholinesterase staining. The colonies were scored using a 5× objective, and 10× objective was used to examine colonies in greater detail.

platelets [6] = assay: cGMP production in washed platelets; format: cell-based, mouse; conditions: 30 minutes at 37° C. in Tyrode's buffer with 1 mM Ca+2; FIG. 6
Protocol: Platelet isolation was adapted from studies described elsewhere (Boylan et al., Blood, 108(3):908-14 (2006); Moraes et al., J. Thromb. Haemost., 8(11):2530-41 (2010); and Bougie et al., Blood, 116(16):3033-8 (2010)). Briefly, C57BL/6 mice were anesthetized with ketamine/xylazine. Blood was obtained from the vena cava and collected into 3.8% sodium citrate. The whole blood was then diluted with equal volumes of Tyrode's buffer containing PGE1 (50 ng/mL), glucose (1 mg/mL), and BSA (2.5 mg/mL) before being spun at 280×g to obtain platelet rich plasma (PRP). The upper […] of the PRP was collected and spun for 10 minutes to collect the platelets. The platelets were then washed with Tyrode's buffer before any analysis was performed. The platelets were counted, visualized by microscopy, and then used for FACS analysis, immunostaining, and western blotting. CD41, CD42D, and GC-B expression was detected by FACS (FIG. 5, middle panel).
The effect of CNP on cGMP production in platelets was studied. Washed platelets were treated with CNP or the mutant Lbab polypeptide for 30 minutes at 37° C. with 5% CO2 in Tyrode's buffer with 1 mM Ca^+2. After the incubation, the cells were lysed, and the amount of cGMP was calculated according to the standard curve that was generated from parallel reactions within the same experiment.

platelets [7] = assay: Platelet adhesion to fibrinogen; format: cell-based, human or C57B1/6 mice; conditions: CNP-treated vs Lbab polypeptide-treated
Protocol: as §3

platelets [8] = assay: Platelet adhesion to fibronectin; format: cell-based, human or C57B1/6 mice; conditions: CNP-treated vs Lbab polypeptide-treated
Protocol: as §3

platelets [9] = assay: Platelet aggregation (lumi-aggregometer); format: cell-based; conditions: data not shown
Protocol: The role of CNP on platelet aggregation and platelet adhesion to fibrinogen, fibronectin, and collagen were assessed. Human platelets or platelets from C57B1/6 mice were isolated and treated with either CNP or the Lbab polypeptide for 30 minutes at 37° C. with 5% CO2. Following treatment, the platelets were gently added to cover slips pre-blocked with 1% BSA and pre-coated with fibrinogen, fibronectin, or collagen (50 μg/mL, CHRONOLOG Corp., Havertown, Pa.). Ca^+2 and Mg^+2 were added to 1 mM and 2 mM, respectively, before incubation at 37° C. for 30 minutes. The platelets were then fixed and permeabilized before staining with TRITC Phalloidin (0.5 μg/mL; Sigma) for an hour. […] The images were analyzed using ImageJ software.
Platelet aggregation was performed at 37° C. in lumi-aggregometer in the presence of luciferin-luciferase to simultaneously measure light transmission and secretion of dense granule-derived ATP. […] Platelet aggregation and secretion was measured in a lumi-aggregometer (Chrono-Log, Havertown, Pa.) for 1 minute following which the polypeptide (CNP or Lbab) was added to the platelets, and aggregation and secretion were measured once again for 2 minutes in order to determine if the polypeptide itself activates the platelets. […] Aggregation and secretion were measured for 15 minutes.

Chain of GC-B present on megakaryocytes (Q6VVW5 23-1047 limits assumed): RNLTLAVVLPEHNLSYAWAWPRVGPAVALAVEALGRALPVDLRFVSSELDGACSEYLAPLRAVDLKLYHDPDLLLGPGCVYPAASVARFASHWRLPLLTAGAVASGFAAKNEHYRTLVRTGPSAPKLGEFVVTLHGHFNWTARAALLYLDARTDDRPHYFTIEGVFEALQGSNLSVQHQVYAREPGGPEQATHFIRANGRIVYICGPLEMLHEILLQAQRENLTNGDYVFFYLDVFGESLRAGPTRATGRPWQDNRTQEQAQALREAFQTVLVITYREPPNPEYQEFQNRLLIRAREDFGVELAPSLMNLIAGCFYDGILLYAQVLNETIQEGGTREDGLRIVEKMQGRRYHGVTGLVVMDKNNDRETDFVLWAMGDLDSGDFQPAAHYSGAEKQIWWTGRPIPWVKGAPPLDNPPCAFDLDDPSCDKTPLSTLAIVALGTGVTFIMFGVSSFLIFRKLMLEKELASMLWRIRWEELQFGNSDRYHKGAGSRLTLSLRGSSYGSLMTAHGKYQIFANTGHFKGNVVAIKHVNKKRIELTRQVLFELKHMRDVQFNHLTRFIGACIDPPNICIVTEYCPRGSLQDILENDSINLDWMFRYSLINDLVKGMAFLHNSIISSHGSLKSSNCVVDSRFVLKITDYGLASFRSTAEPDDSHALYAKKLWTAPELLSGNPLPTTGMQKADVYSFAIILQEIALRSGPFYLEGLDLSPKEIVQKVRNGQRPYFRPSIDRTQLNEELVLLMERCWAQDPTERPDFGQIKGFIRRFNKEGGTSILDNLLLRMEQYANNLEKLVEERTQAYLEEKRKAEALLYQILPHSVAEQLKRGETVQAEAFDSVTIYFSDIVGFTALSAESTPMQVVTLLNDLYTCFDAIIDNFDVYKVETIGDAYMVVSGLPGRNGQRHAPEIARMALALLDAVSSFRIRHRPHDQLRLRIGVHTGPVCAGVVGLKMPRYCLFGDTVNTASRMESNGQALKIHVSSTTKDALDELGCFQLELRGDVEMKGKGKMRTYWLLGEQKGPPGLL

Row | Molecule | tubulin distribution in spreading platelets (tubulin [1]) | actin distribution / function in spreading platelets (actin) | tubulin polymerization (O.D.) (tubulin [2]) | cGMP production by megakaryocytes [3] | number of platelets adhered to collagen (platelets [4]; 500 nM) | number of platelets adhered to collagen (platelets [4]; 1000 nM) | platelet adhesion to collagen (in words) (platelets [4]) | pseudopodia formation of platelets adhered to collagen (platelets [4]) | marginal band formation (tubulin) within platelets (tubulin [5]) | megakaryocyte colony formation (megakaryocytes) | megakaryocyte colony size (megakaryocytes) | cGMP production in platelets (platelets [6]) | filopodia of platelets in the presence of collagen (platelets [4]; electron microscopy, varying concentrations, FIG. 8) | adhesion of platelets to fibrinogen (platelets [7]) | adhesion of platelets to fibronectin (platelets [8]) | platelet aggregation (platelets [9])
1 | CC(=O)O[C@H]1C(=O)[C@@]2(C)[C@H]([C@H](OC(=O)c3ccccc3)[C@]3(O)C[C@H](OC(=O)[C@H](O)[C@@H](NC(=O)c4ccccc4)c4ccccc4)C(C)=C1C3(C)C)[C@]1(OC(C)=O)CO[C@@H]1C[C@@H]2O [Taxol, paclitaxel, reference compound] | inhibits tubulin distribution in spreading platelets | minimal effect on actin distribution | effects on the growth and steady state phases of tubulin polymerization | – | – | – | – | – | – | – | – | – | – | – | – | –
2 | Lbab: single residue mutant CNP (SEQ ID NO:2) with Arg to Gly substitution, used as control polypeptide (GLSKGCFGLKLDGIGSMSGLGC; Mutant CNP; listed as Homo sapiens) [reference compound] | does not demonstrate such an affect | – | – | but not the Lbab polypeptide, stimulated cGMP production | 4536±43 | 4390±24 | near normal platelet adhesion to collagen | normal sprouting of pseudopodia | capable of forming clear marginal bands | – | – | – | – | – | – | –
3 | c-type natriuretic peptide [CNP] | inhibits tubulin distribution in spreading platelets | minimal effect on actin distribution; also recorded: does not influence actin function significantly | has effects on the growth and steady state phases of tubulin polymerization | stimulated a dose-dependent increase in cGMP formation | 2451±39 | 1712±20 | attenuated platelet adhesion to collagen | abnormal pseudopodia formation | decreased marginal band formation | inhibited colony formation | significantly affected colony size | did not affect cGMP levels | aberrant filopodia | no significant difference | no significant difference | unaffected

Source: patent US8637462B2, “Methods for reducing platelet counts and/or platelet adhesion by administering a GC-B receptor agonist” (Mayo Foundation for Medical Education and Research, priority 2011, dated 2014)
